PMC3522636, “4F Decreases IRF5 Expression and Activation in Hearts of Tight Skin Mice” (PLoS ONE, 2012)
Entries after “also recorded” stand apart in the source; their conditions may differ.

What was measured:
[1] = test system: Human umbilical vein endothelial cells; assay: Cellular uptake of B-4F in endothelial cells; type: cell-based; settings: vs unlabeled 4F, confocal; for increase of fluorescence intensity in EC: 4 hours, fluorescein-streptavidin
Protocol: Human umbilical vein endothelial cells (EC; Lonza, Walkersville, MD) were incubated in EGM complete media containing 4F or B-4F (10 and 50 µg/ml) for 4 hours. The EC cultures were washed with PBS, fixed in PBS containing 1% paraformaldehyde, and permeabilized with PBS containing 0.5% Triton-X. The permeabilized sections were incubated with fluorescein-conjugated streptavidin (1 µg/ml) for 30 minutes followed by 3 PBS washes. The fixed and fluorescently labeled slides were mounted in aqueous mounting media and sections inspected and analyzed by confocal microscopy.

IRF5 = target: T1, IRF5 (Homo sapiens, UniProt Q13568); assay: B-4F pulldown assay from EC cytosolic fractions spiked with recombinant IRF5; type: binding; settings: immunoblot
T1 construct: purchased GenScript USA Inc
T1 sequence (Q13568 1-498): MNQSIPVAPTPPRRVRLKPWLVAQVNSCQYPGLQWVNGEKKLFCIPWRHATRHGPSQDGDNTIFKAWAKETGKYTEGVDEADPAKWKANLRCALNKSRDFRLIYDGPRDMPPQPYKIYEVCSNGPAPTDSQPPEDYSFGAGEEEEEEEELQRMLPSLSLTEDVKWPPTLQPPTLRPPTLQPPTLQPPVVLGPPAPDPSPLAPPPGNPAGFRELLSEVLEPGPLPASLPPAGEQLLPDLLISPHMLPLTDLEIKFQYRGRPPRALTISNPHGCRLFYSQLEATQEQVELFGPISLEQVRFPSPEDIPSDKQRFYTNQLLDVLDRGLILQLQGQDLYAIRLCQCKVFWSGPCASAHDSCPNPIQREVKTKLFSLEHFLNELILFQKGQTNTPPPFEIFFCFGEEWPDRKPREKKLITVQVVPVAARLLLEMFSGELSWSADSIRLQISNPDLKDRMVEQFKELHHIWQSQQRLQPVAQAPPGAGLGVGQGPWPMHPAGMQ
Protocol: B-4F Pulldown Assays: To determine whether 4F interacts with IRF5 in the presence of cystosol proteins, we performed 4F pulldown assays on EC cytosolic fractions spiked with recombinant IRF5. Briefly, cytosolic EC fractions were precleared with SA agarose beads (Cat#15942-050, Invitrogen) for 30 minutes at 4°C. IRF5 interactions were enhanced by adding recombinant IRF5 (2% wt/vol, Genscript USA Inc.) to the endothelial cytosolic fractions. 4F and B-4F were added to the cytosolic fractions and incubated for 3 hours at 4°C. SA agarose beads were added and the samples mixed end-over-end overnight at 4°C. The following day the SA agarose beads were isolated by centrifugation. The proteins associated with B-4F were released from the beads with Laemmli buffer and separated by SDS-PAGE (4–15%) as above. IRF5 levels in the pulldown samples were determined by autoradiography of immunoblots as above.

[2] = target: biotin-labeled 4F (biotin-labeled …-NH2); assay: pull-down; B-4F added to precleared endothelial cell cytosolic fractions spiked with recombinant IRF5, 3 h at 4°C; SA agarose beads overnight at 4°C; immunoblot for IRF5

Row | fold IRF5 in the B-4F precipitate over control lane 1 [2] | Substance | increase of fluorescence intensity in EC ([1]; B-4F 10 µg/ml) | increase of fluorescence intensity in EC ([1]; B-4F 50 µg/ml, p≤0.05) | uptake into EC (in words) ([1]; B-4F 10 and 50 µg/ml, 4 hours (method), 3 hours (Figure 6)) | association with IRF5 in presence of EC cytosolic proteins (in words) (IRF5; 3 hours at 4°C, SA agarose beads overnight at 4°C) | IRF5 bound to the B-4F precipitate relative to control (IRF5; EC lysates with recombinant IRF5 (10 µg/mL), SA-agarose pulldown, lane 2 vs control lane 1)
1 |  | biotin-labeled DWFKAFYDKVAEKFKEAF-NH2 [B-4F, biotin-labeled 4F, synthesized with one more cycle with FMOC-Lys(biotinyl-ε-aminocaproyl)-OH] | approximately 30% | 3.6 fold | greater fluorescence in EC cultures incubated with 10 and 50 µg/ml of B-4F than in EC cultures incubated with equal concentrations of unlabeled 4F; also recorded: B-4F content is increased in ECs incubated with 10 and 50 µg/ml | associates with IRF5 even in the presence of EC cytosolic proteins | 2.5 fold
2 | 2.5 fold | recombinant IRF5 (from UniProt Q13568 1-498) (natural protein) |  |  |  |  | 
